Laboratory results taken from patent US20240327382A1 (ALMAC DISCOVERY LIMITED, priority 2021, published 2024).

Target: T1, Full-length USP19 (Homo sapiens, UniProt O94966)
T1 construct: Full-length USP19 was purchased from Boston Biochem (E-576); purchased Boston Biochem E-576
T1 sequence (O94966 1-1318): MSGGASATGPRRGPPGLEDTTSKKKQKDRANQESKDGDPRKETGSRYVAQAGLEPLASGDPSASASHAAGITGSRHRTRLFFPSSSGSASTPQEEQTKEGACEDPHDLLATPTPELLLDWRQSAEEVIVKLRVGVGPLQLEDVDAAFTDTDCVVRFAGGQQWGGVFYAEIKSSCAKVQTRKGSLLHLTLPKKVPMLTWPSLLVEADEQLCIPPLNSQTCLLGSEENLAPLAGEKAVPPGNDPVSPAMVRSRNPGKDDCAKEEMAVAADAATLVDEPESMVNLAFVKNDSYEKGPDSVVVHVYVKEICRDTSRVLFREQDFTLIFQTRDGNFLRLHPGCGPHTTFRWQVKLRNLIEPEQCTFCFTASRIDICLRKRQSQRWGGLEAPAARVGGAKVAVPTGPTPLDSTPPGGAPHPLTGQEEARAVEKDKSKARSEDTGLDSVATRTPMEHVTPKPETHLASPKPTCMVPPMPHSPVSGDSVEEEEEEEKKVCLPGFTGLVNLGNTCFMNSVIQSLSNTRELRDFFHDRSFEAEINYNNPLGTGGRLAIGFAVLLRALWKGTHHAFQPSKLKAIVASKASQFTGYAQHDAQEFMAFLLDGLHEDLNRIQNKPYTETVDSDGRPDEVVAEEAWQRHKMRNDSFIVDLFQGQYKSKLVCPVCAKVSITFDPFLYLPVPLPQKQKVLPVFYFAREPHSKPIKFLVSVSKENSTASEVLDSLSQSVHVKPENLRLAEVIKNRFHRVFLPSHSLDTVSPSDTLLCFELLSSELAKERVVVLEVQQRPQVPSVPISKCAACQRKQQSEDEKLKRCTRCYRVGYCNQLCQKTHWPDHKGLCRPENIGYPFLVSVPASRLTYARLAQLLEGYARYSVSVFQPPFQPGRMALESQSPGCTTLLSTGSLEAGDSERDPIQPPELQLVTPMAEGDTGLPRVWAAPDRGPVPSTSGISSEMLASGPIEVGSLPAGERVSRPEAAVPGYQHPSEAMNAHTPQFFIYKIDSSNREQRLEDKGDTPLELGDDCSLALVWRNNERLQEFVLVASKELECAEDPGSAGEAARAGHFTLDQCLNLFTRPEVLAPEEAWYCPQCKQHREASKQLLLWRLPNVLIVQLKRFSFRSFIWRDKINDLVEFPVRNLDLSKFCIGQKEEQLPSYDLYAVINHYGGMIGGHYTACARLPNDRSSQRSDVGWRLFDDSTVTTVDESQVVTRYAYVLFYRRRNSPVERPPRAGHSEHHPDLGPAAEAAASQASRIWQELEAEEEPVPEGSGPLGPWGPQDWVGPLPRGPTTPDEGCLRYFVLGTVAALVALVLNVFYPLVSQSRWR
Test: USP19 fluorescence polarisation (FP) assay, Ubiquitin-Lys-TAMRA substrate
Format: biochemical
Settings: average of at least two duplicate experiments
Method in brief: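 Full-length human USP19 (added at 2.5 nM) was preincubated 30 min at RT with inhibitor (serial dilutions 200 μM to 2 μM) in 50 mM HEPES pH 7.4, 150 mM NaCl, 5 mM DTT, 0.05% BSA, 0.05% CHAPS. Ubiquitin-Lys-TAMRA isopeptide substrate (added at 500 nM) started the reaction, and FP (Ex 530/Em 575 nm) was read every 15 min over 90 min. IC50 came from non-linear regression of signal normalised to no-compound control, averaged over at least two duplicate experiments.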

SMILES	IC50 [nM]
Cc1cc(=O)n(CC2CCN(C(=O)N3CC[C@@H](N)C[C@H]3c3ccccc3)CC23CCCC3)cn1 (stereo partly drawn) [Example 32, 3-((7-((2S,4R)-4-Amino-2-phenylpiperidine-1-carbonyl)-7-azaspiro[4.5]decan-10-yl)methyl)-6-methylpyrimidin-4(3H)-one]	10 to 100
COC(=O)CN[C@@H]1CCN(C(=O)N2CC[C@@H](Cn3cnc(-c4ccccc4)cc3=O)C3(CCCC3)C2)[C@H](c2ccccc2)C1 [Example 105, Methyl ((2S,4R)-1-((R)-10-((6-oxo-4-phenylpyrimidin-1(6H)-yl)methyl)-7-azaspiro[4.5]decane-7-carbonyl)-2-phenylpiperidin-4-yl)glycinate]	< 10
O=C(N1CC[C@@H](Cn2cnc(-c3ccccc3)cc2=O)C2(CCCC2)C1)N1CC[C@@H](NCc2ccncn2)C[C@H]1c1cc(F)ccc1F [Example 170, 3-(((R)-7-((2S,4R)-2-(2,5-Difluorophenyl)-4-((pyrimidin-4-ylmethyl)amino)piperidine-1-carbonyl)-7-azaspiro[4.5]decan-10-yl)methyl)-6-phenylpyrimidin-4(3H)-one]	< 10
O=C(N1CCC(Cn2ccc(-c3ccccc3)cc2=O)CC1)N1CCNC[C@H]1c1cc(F)ccc1F [Example 22, (R)-1-((1-(2-(2,5-Difluorophenyl)piperazine-1-carbonyl)piperidin-4-yl)methyl)-4-phenylpyridin-2(1H)-one]	10 to 100
CN[C@@H]1CCN(C(=O)N2CC[C@@H](Cn3cnc(-c4ccccc4OC)cc3=O)C3(CCCC3)C2)[C@H](c2ccccc2)C1 [Example 97, 6-(2-Methoxyphenyl)-3-(((R)-7-((2S,4R)-4-(methylamino)-2-phenylpiperidine-1-carbonyl)-7-azaspiro[4.5]decan-10-yl)methyl)pyrimidin-4(3H)-one]	< 10
CN[C@@H]1CCN(C(=O)N2CC[C@@H](Cn3cnc(-c4ccccc4C)cc3=O)C3(CCCC3)C2)[C@H](c2ccc(F)c(F)c2)C1 [Example 139, 3-(((R)-7-((2S,4R)-2-(3,4-Difluorophenyl)-4-(methylamino)piperidine-1-carbonyl)-7-azaspiro[4.5]decan-10-yl)methyl)-6-(0-tolyl)pyrimidin-4(3H)-one]	< 10

The remaining lines, values ahead:

IC50 [nM]	SMILES
< 10	O=C(N[C@@H]1CCN(C(=O)N2CC[C@@H](Cn3cnc(-c4ccccc4)cc3=O)C3(CCCC3)C2)[C@H](c2cc(F)ccc2F)C1)C1CC1 [Example 164, N-((2S,4R)-2-(2,5-Difluorophenyl)-1-((R)-10-((6-oxo-4-phenylpyrimidin-1(6H)-yl)methyl)-7-azaspiro[4.5]decane-7-carbonyl)piperidin-4-yl)cyclopropanecarbox-amide]
< 10	CN[C@@H]1CCN(C(=O)N2CCC(Cn3ccc(-c4ccccc4)cc3=O)CC2)[C@H](c2ccccc2)C1 [Example 47, 1-((1-((2S,4R)-4-(Methylamino)-2-phenylpiperidine-1-carbonyl)piperidin-4-yl)methyl)-4-phenylpyridin-2(1H)-one]
< 10	CN[C@@H]1CCN(C(=O)N2CC[C@@H](Cn3cnc(-c4ccccc4OC)cc3=O)C3(CCCC3)C2)[C@H](c2ccc(F)cc2F)C1 [Example 117, 3-(((R)-7-((2S,4R)-2-(2,4-Difluorophenyl)-4-(methylamino)piperidine-1-carbonyl)-7-azaspiro[4.5]decan-10-yl)methyl)-6-(2-methoxyphenyl)pyrimidin-4(3H)-one]
< 10	Cc1ccccc1-c1cc(=O)n(C[C@@H]2CCN(C(=O)N3CC[C@@H](N)C[C@H]3c3cc(F)ccc3F)CC23CCCC3)cn1 [Example 82, 3-(((R)-7-((2S,4R)-4-Amino-2-(2,5-difluorophenyl)piperidine-1-carbonyl)-7-azaspiro[4.5]decan-10-yl)methyl)-6-(o-tolyl)pyrimidin-4(3H)-one]
< 10	N[C@@H]1CCN(C(=O)N2CC[C@@H](Cn3ccc(-c4ccccc4F)cc3=O)C3(CCCC3)C2)[C@H](c2ccccc2)C1 [Example 61, 1-(((R)-7-((2S,4R)-4-Amino-2-phenylpiperidine-1-carbonyl)-7-azaspiro[4.5]decan-10-yl)methyl)-4-(2-fluorophenyl)pyridin-2(1H)-one]
